From patent US20240182445A1 (ONO PHARMACEUTICAL CO., LTD., priority 2019, published 2024) come the findings set out here.

Molecules are shown by their SMILES.

The first assay has as its target T1, human TREK-1 (Homo sapiens, UniProt O95069).
T1 construct: expressed in transfected cells
T1 sequence (O95069 1-426): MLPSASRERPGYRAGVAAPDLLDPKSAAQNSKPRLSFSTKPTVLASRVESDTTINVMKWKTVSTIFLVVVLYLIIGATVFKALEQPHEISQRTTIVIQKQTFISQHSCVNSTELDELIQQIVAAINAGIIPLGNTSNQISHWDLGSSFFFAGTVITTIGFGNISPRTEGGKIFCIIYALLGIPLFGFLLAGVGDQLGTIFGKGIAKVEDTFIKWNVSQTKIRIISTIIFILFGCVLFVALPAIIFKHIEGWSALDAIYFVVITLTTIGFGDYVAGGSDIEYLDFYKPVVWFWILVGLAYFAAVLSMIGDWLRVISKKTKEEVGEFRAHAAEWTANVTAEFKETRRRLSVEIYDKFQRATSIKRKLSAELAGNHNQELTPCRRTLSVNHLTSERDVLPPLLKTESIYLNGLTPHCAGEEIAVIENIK
In words: TREK-1 Thallium (Tl+) flux assay, Method 1. The settings on record: TREK-1 Thallium (Tl+) flux assay, Method 1. The class given is cell-based. The procedure, abridged:
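Readout: Thallos fluorescence ratio, taken 25 s post-thallium relative to the pre-thallium baseline average, then converted to % inhibition. Cells were CHO-K1 stably expressing human TREK-1, dye-loaded and exposed to test compound (vehicle 0.3% DMSO) for 10 min prior to thallium stimulation.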
What is called IC50 is the concentration needed to halve the response being measured. Higher therefore signals lower potency. Consider `CCC(=O)N[C@H]1CC[C@@H](n2ncc(Cl)c2C(=O)Nc2ccc(OCc3ccccc3)cc2C)CC1` [Compound 392, N-(4-(benzyloxy)-2-methylphenyl)-4-chloro-1-(cis-4-propionamidocyclohexyl)-1H-pyrazole-5-carboxamide], for which the IC50 amounted to 1260 nM.

Molecule `Cc1cc(OCc2ccccc2)ccc1NC(=O)c1c(Cl)cnn1CC1CN(C(=O)CC(C)C)CCO1` (stereo not shown) [Compound 429, N-(4-(benzyloxy)-2-methylphenyl)-4-chloro-1-((4-(3-methylbutanoyl)morpholin-2-yl)methyl)-1H-pyrazole-5-carboxamide] displayed an IC50 of 5520 nM.

Still in this assay, the particulars now being: TREK-1 Thallium (Tl+) flux assay; no *^12 (Method 2) mark on these rows.
On to `CC(C)(C)OC(=O)N1CCN(CCn2ncc(Cl)c2C(=O)Nc2ncc(C#Cc3ccccc3)cc2F)CC1` [Compound 257, tert-butyl 4-(2-(4-chloro-5-((3-fluoro-5-(phenylethynyl)pyridin-2-yl)carbamoyl)-1H-pyrazol-1-yl)ethyl)piperazine-1-carboxylate], for which half-maximal inhibition (IC50) was put at 420 nM. The molecule `Cc1cc(C#Cc2ccc(F)cc2)cnc1NC(=O)c1c(Cl)cnn1CC1(C#N)CCN(C(=O)OC(C)(C)C)CC1` [Compound 269, tert-butyl 4-((4-chloro-5-((5-((4-fluorophenyl)ethynyl)-3-methylpyridin-2-yl)carbamoyl)-1H-pyrazol-1-yl)methyl)-4-cyanopiperidine-1-carboxylate] returned an IC50 of 450 nM. The IC50 values of the last two molecules are within 1.5-fold of each other. The same measure, in the same setting: in the case of `Cc1cc(C#Cc2ccccc2)cnc1NC(=O)c1c(Cl)cnn1C[C@@H]1COCCO1` [Compound 338, (R)-1-((1,4-dioxan-2-yl)methyl)-4-chloro-N-(3-methyl-5-(phenylethynyl)pyridin-2-yl)-1H-pyrazole-5-carboxamide] it was 730 nM; in that of `Cc1cc(C#Cc2ccccc2F)cnc1NC(=O)c1c(Cl)cnn1CCC1CCN(C(=O)C2CC2)CC1` [Compound 226, 4-chloro-1-(2-(1-(cyclopropanecarbonyl)piperidin-4-yl)ethyl)-N-(5-((2-fluorophenyl)ethynyl)-3-methylpyridin-2-yl)-1H-pyrazole-5-carboxamide], 350 nM; in that of `CC(C)(C)OC(=O)N1CC2(CC(n3ncc(Cl)c3C(=O)Nc3ncc(C#Cc4ccccc4)cc3F)C2)C1` [Compound 334, tert-butyl 6-(4-chloro-5-((3-fluoro-5-(phenylethynyl)pyridin-2-yl)carbamoyl)-1H-pyrazol-1-yl)-2-azaspiro[3.3]heptane-2-carboxylate], 670 nM. As for `O=C(Nc1c(F)cc(C#Cc2ccccc2)cc1F)c1c(Cl)cnn1C[C@H]1COCCO1` [Compound 252, (S)-1-((1,4-dioxan-2-yl)methyl)-4-chloro-N-(2,6-difluoro-4-(phenylethynyl)phenyl)-1H-pyrazole-5-carboxamide], the IC50 was found to be 410 nM. Same read-out and setting: in the case of `Cc1cc(C#Cc2ccccc2)cnc1NC(=O)c1c(Cl)cnn1C1CCN(C(=O)OC(C)(C)C)C[C@H]1F` (stereo in doubt) [Compound 336, tert-butyl (3R,4R)-4-(4-chloro-5-((3-methyl-5-(phenylethynyl)pyridin-2-yl)carbamoyl)-1H-pyrazol-1-yl)-3-fluoropiperidine-1-carboxylate] it was 710 nM. For `CC(=O)N1C[C@H]2C[C@H](n3ncc(Cl)c3C(=O)Nc3ncc(C#Cc4ccccc4)cc3C)C[C@H]2C1` [Compound 260, 1-[(3aR,5s,6aS)-2-acetyloctahydrocyclopenta[c]pyrrol-5-yl]-4-chloro-N-[3-methyl-5-(phenylethynyl)pyridin-2-yl]-1H-pyrazole-5-carboxamide], the midpoint of inhibition, the IC50, lay at 260 nM. This IC50 lies about 2.7-fold lower than the previous one. Same read-out and setting: in the case of `CCC(=O)N1CCOC(Cn2ncc(Cl)c2C(=O)Nc2ncc(C#Cc3ccc(F)cc3)cc2C)C1` (stereo not shown) [Compound 347, 4-chloro-N-(5-((4-fluorophenyl)ethynyl)-3-methylpyridin-2-yl)-1-((4-propionylmorpholin-2-yl)methyl)-1H-pyrazole-5-carboxamide] it was 770 nM.

`CC(C)(C)OC(=O)N1CCC(n2ncc(Cl)c2C(=O)Nc2c(F)cc(C#Cc3ccccc3)cc2F)C1` (stereo not shown) [Compound 297, tert-butyl 3-(4-chloro-5-((2,6-difluoro-4-(phenyethynyl)phenyl)carbamoyl)-1H-pyrazol-1-yl)pyrroldine-1-carboxylate]: the IC50 was determined as 540 nM. Still for that read-out and setting: in the case of `O=C(Nc1ncc(C#Cc2ccccc2)cc1Cl)c1c(Cl)cnn1[C@@H]1CCOC1` [Compound 376, (R)-4-chloro-N-(3-chloro-5-(phenylethynyl)pyridin-2-yl)-1-(tetrahydrofuran-3-yl)-1H-pyrazole-5-carboxamide] it was 1540 nM.

The same assay, now with this note: TREK-1 Thallium (Tl+) flux assay; values without footnote *12 are Method 1.
`CC(=O)N1CCC(n2ncc(Cl)c2C(=O)Nc2ncc(C#Cc3ccccc3)cc2C)CC1C` (stereo not shown) [Compound 61, 1-(1-acetyl-2-methylpiperidin-4-yl)-4-chloro-N-(3-methyl-5-(phenylethynyl)pyridin-2-yl)-1H-pyrazole-5-carboxamide]: it took 150 nM to reach half-maximal inhibition (IC50). The same measure, in the same setting: in the case of `CC(=O)N1CCC(C)(Cn2ncc(Cl)c2C(=O)Nc2ncc(C#Cc3ccccc3)cc2C)CC1` [Compound 166, 1-((1-acetyl-4-methylpiperidin-4-yl)methyl)-4-chloro-N-(3-methyl-5-(phenylethynyl)pyridin-2-yl)-1H-pyrazole-5-carboxamide] it was 260 nM.

`CC(C)C(=O)N[C@H]1C[C@@H](n2ncc(Cl)c2C(=O)Nc2ncc(C#Cc3ccccc3)cc2F)C1` [Compound 124, 4-chloro-N-(3-fluoro-5-(phenylethynyl)pyridin-2-yl)-1-(cis-3-isobutyramidocyclobutyl)-1H-pyrazole-5-carboxamide] registered an IC50 of 210 nM. The IC50 values of the last two molecules are within 1.5-fold of each other. Consider `CC(=O)N1CC(Cn2ncc(Cl)c2C(=O)Nc2ncc(C#Cc3ccccc3)cc2F)C1` [Compound 93, 1-((1-acetylazetidin-3-yl)methyl)-4-chloro-N-(3-fluoro-5-(phenylethynyl)pyridin-2-yl)-1H-pyrazole-5-carboxamide], for which the IC50 was determined as 180 nM. Still for that read-out and setting: in the case of `CC(=O)N1CCOC(Cn2ncc(Cl)c2C(=O)Nc2ncc(C#Cc3ccccc3)cc2C)C1` (stereo not shown) [Compound 105, 1-((4-acetylmorpholin-2-yl)methyl)-4-chloro-N-(3-methyl-5-(phenylethynyl)pyridin-2-yl)-1H-pyrazole-5-carboxamide] it was 190 nM. On the same count and under the same terms, in the case of `CC(=O)N1CCC(Cn2ncc(Cl)c2C(=O)Nc2ncc(C#Cc3cccs3)cc2C)CC1` [Compound 123, 1-((1-acetylpiperidin-4-yl)methyl)-4-chloro-N-(3-methyl-5-(thiophen-2-ylethynyl)pyridin-2-yl)-1H-pyrazole-5-carboxamide] it was 210 nM. Still for that read-out and setting: in the case of `CC(=O)N1CCC(C#N)(Cn2ncc(Cl)c2C(=O)Nc2ncc(C#Cc3ccc(F)cc3)cc2C)CC1` [Compound 179, 1-((1-acetyl-4-cyanopiperidin-4-yl)methyl)-4-chloro-N-(5-((4-fluorophenyl)ethynyl)-3-methylpyridin-2-yl)-1H-pyrazole-5-carboxamide] it was 270 nM; in that of `Cc1cc(C#Cc2ccccc2)cc(F)c1NC(=O)c1c(Cl)cnn1C1CCOCC1` [Compound 180, 4-chloro-N-(2-fluoro-6-methyl-4-(phenylethynyl)phenyl)-1-(tetrahydro-2H-pyran-4-yl)-1H-pyrazole-5-carboxamide], 280 nM; in that of `CC(=O)N1CCC(C#N)(Cn2ncc(Cl)c2C(=O)Nc2ncc(C#Cc3ccccc3)cc2F)CC1` [Compound 39, 1-((1-acetyl-4-cyanopiperidin-4-yl)methyl)-4-chloro-N-(3-fluoro-5-(phenylethynyl)pyridin-2-yl)-1H-pyrazole-5-carboxamide], 120 nM.
